Assays:
[1] = tested on: Respiratory syncytial virus; experiment: Inhibitory activity against respiratory syncytial virus was determined; type: functional, organism-based; conditions: human respiratory syncytial virus
[2] = tested on: Cytomegalovirus; experiment: Inhibitory activity against cytomegalo virus was determined; type: functional, organism-based; conditions: Human betaherpesvirus 5
[3] = Inhibitory activity against MTS host cell toxicity was determined; type: functional
[4] = tested on: Human alphaherpesvirus 3; experiment: Inhibitory activity against varicella zoster virus was determined; type: functional, organism-based
[5] = tested on: Human alphaherpesvirus 2; experiment: Inhibitory activity against herpes simplex virus was determined; type: functional, organism-based

SMILES | IC50 [1] | IC50 [2] | IC50 [3] | IC50 [4] | IC50 [5]
C[C@@H](/N=C(\S)Nc1ccc(NC(=O)c2cscn2)cc1)c1cc(C(F)(F)F)cc(C(F)(F)F)c1 | 2 µM | 0.0015 µM | > 7.5 µM | > 3.7 µM | > 5 µM
C[C@H](/N=C(\S)Nc1ccc(NC(=O)c2cscn2)cc1)c1cc(C(F)(F)F)cc(C(F)(F)F)c1 | > 5 µM | 0.0006 µM | > 7.5 µM | > 3.7 µM | > 5 µM
O=C(Nc1ccc(/N=C(\S)Nc2cc(C(F)(F)F)cc(C(F)(F)F)c2)cc1)c1cscn1 | > 5 µM | 0.016 µM | – | > 5 µM | > 5 µM
CCC(/N=C(\S)Nc1ccc(NC(=O)c2csnn2)cc1)c1cc(C(F)(F)F)cc(C(F)(F)F)c1 (configuration not stated) | > 5 µM | 0.001 µM | > 7.5 µM | > 3.7 µM | 5 µM
C[C@@H](/N=C(\S)Nc1ccc(NC(=O)c2cscn2)nc1)c1cc(C(F)(F)F)cc(C(F)(F)F)c1 | 1 µM | 0.0028 µM | > 7.5 µM | > 3.7 µM | > 5 µM
O=C(Nc1ccc(N/C(S)=N/Cc2cc(C(F)(F)F)cc(C(F)(F)F)c2)cn1)c1csnn1 | > 5 µM | 0.0044 µM | > 7.5 µM | > 3.7 µM | > 5 µM
CC(/N=C(\S)Nc1ccc(NC(=O)c2csnn2)cc1)c1cc(C(F)(F)F)cc(C(F)(F)F)c1 (configuration not stated) | > 5 µM | 0.003 µM | > 7.5 µM | > 3.7 µM | > 5 µM
C[C@H](/N=C(\S)Nc1ccc(NC(=O)c2csnn2)cc1)c1cc(C(F)(F)F)cc(C(F)(F)F)c1 | > 5 µM | 0.003 µM | > 7.5 µM | > 3.7 µM | > 5 µM
CCCC(/N=C(\S)Nc1ccc(NC(=O)c2csnn2)cc1)c1cc(C(F)(F)F)cc(C(F)(F)F)c1 (configuration not stated) | > 5 µM | 0.001 µM | > 7.5 µM | > 3.7 µM | > 5 µM
O=C(Nc1ccc(/N=C(\S)Nc2cc(C(F)(F)F)cc(C(F)(F)F)c2)cc1)c1csnn1 | 5 µM | 0.037 µM | – | > 5 µM | > 5 µM
O=C(Nc1ccc(N/C(S)=N/Cc2cc(C(F)(F)F)cc(C(F)(F)F)c2)cc1)c1csnn1 | > 5 µM | 0.002 µM | – | > 5 µM | > 5 µM
CCC(/N=C(\S)Nc1ccc(NC(=O)c2cscn2)cc1)c1cc(C(F)(F)F)cc(C(F)(F)F)c1 (configuration not stated) | > 5 µM | 0.0002 µM | > 7.5 µM | > 3.7 µM | 4.1 µM
O=C(Nc1ccc(N/C(S)=N/C(c2ccccc2)c2cc(C(F)(F)F)cc(C(F)(F)F)c2)cc1)c1csnn1 (configuration not stated) | > 5 µM | 0.002 µM | > 7.5 µM | > 3.7 µM | > 5 µM
C[C@H](/N=C(\S)Nc1ccc(NC(=O)c2cscn2)nc1)c1cc(C(F)(F)F)cc(C(F)(F)F)c1 | > 5 µM | 0.002 µM | > 7.5 µM | > 3.7 µM | > 5 µM
C[C@H](/N=C(\S)Nc1ccc(NC(=O)c2csnn2)nc1)c1cc(C(F)(F)F)cc(C(F)(F)F)c1 | > 5 µM | 0.003 µM | 8 µM | > 3.7 µM | 4.1 µM
CC(C)(/N=C(\S)Nc1ccc(NC(=O)c2csnn2)cc1)c1cc(C(F)(F)F)cc(C(F)(F)F)c1 | > 5 µM | 0.004 µM | > 7.5 µM | > 3.7 µM | > 5 µM
